The subject of data set [1] is aster leafhopper (Macrosteles fascifrons). Kind of data set: whole plant or invertebrate. As to conditions: for ALH percent mortality: 24 hours, 1440 min. It is filed as in vivo. The procedure, abridged:
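Compounds were formulated in water with Tween 20 and acetone/EtOH and tested at 400 and 50 ppm. Percent mortality was scored after 24 h at room temperature.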

Data set [2] concerns Erysiphe graminis tritici (powdery mildew). Kind of data set: Foliar spray fungicide test, Erysiphe graminis tritici (powdery mildew) on wheat. As to conditions: for ERYSGT disease control: host wheat, 400 ppm (+++: 100 ppm).
Procedure: (§1) The test compounds were formulated for application by dissolving 50 mg of the compound into 1.25 ml of solvent. The solvent was prepared by mixing 50 ml of "Tween 20" (polyoxyethylene (20) sorbitan monolaurate emulsifier) with 475 ml of acetone and 475 ml of ethanol. The solvent/compound solution was diluted to 125 ml with deionized water. The resulting formulation contains 400 ppm test chemical. Lower concentrations were obtained by serial dilution with the solvent-surfactant mixture.
(§2) The formulated test compounds were applied by foliar spray. The following plant pathogens and their corresponding plants were employed.
(§3) The formulated technical compounds were sprayed on all foliar surfaces of the host plants to past run-off. Single pots of each host plant were placed on raised, revolving pedestals in a fume hood. Test solutions were sprayed on all foliar surfaces. All treatments were allowed to dry and the plants were inoculated with the appropriate pathogens within 24 hours.
(§4) The effectiveness of test compounds in controlling disease was rated using the following scale.
Data set [3] deals with Leptosphaeria nodorum (glume blotch). Briefly: Foliar spray fungicide test, Leptosphaeria nodorum (glume blotch) on wheat. To be noted: for LETPNO disease control: host wheat, 400 ppm (+++: 100 ppm).
Data set [4] relates to Pyricularia oryzae (rice blast). Briefly: whole plant or invertebrate. It is filed as in vivo. As to conditions: foliar spray, 400 ppm (+++: 100 ppm); for PYRIOR disease control: host rice.
The subject of data set [5] is Plasmopara viticola (downy mildew). Kind of data set: Foliar spray fungicide test, Plasmopara viticola (downy mildew) on grape. To be noted: for pest or weed control at 400 µg/mL: Plasmopara viticola, foliar, read-out: PLASVI disease control.
Procedure: as §1
The formulated test compounds were applied by foliar spray.
as §3, §4
The subject of data set [6] is beet armyworm (Spodoptera exiqua). Briefly: Activity against beet armyworm. It is filed as in vivo. To be noted: 6 days. A digest of the protocol: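 Compounds formulated in acetone/EtOH with aqueous 0.05% Tween 20, tested at 400 and 50 ppm. Half-strength lepidopteran agar diet cups carrying 35-40 beet armyworm eggs sprayed through a flat-fan nozzle, dried, sealed and held 6 days at room temperature. Rated by live and dead larval counts and live larval size.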

For data set [7], the system named is tobacco budworm (Heliothis virescens). Briefly: Activity against tobacco budworm. As to conditions: 6 days. It is filed as in vivo. The procedure, abridged:
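Compounds formulated in acetone/EtOH with aqueous Tween 20 and sprayed at 400 and 50 ppm onto half-strength lepidopteran diet cups seeded 1 h earlier with 18–20 eggs. After 6 days at room temperature, activity rated from live and dead larval counts and live larva size.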

Data set [8] relates to two spotted spider mite (Tetranychus urticae). As to conditions: 400 ppm, squash plants, three days after treatment, 4320 min.
The test system of data set [9] is cotton aphid (Aphis gossypii). To be noted: 400 ppm, squash plants, three days after treatment, 4320 min.
Data set [10] deals with Puccinia recondita tritici (leaf rust). Briefly: Foliar spray fungicide test, Puccinia recondita tritici (leaf rust) on wheat. As to conditions: for PUCCRT disease control: host wheat, 400 ppm (+++: 100 ppm).
Procedure: as §1, §2
Puccinia recondita PUCCRT wheat
as §3, §4
Data set [11] relates to Southern corn rootworm (Diabrotica undecimpuctata howardi Barber). Briefly: whole plant or invertebrate. It is filed as in vivo. As to conditions: 400 ppm, soil concentration of 24 ppm, 3-4 days, read-out: SCRW mortality.
Data set [12] relates to German cockroach (Blattella germanicus). Kind of data set: whole plant or invertebrate. It is filed as in vivo. To be noted: 240 h, ten days, read-out: GECR activity (rated on live and dead insects).
In data set [13] the test system is two spotted spider mite (Tetranychus urticae). Briefly: whole plant or invertebrate. As to conditions: 72 h.
Data set [14] relates to Southern corn rootworm (Diabrotica undecimpuctata howardi Barber). Briefly: whole plant or invertebrate. As to conditions: 3-4 days, read-out: SCRW mortality. It is filed as in vivo.
Data set [15] deals with cotton aphid (Aphis gossypii). Briefly: whole plant or invertebrate. To be noted: 72 h.

This note sets out measurements from patent US5326766A, “4-(2-(4-(2-pyridinyloxy)phenyl)ethoxy)quinazoline and analogues thereof” (priority 1992, dated 1994).

`Fc1cccc2c(OCCc3ccc(Oc4nc(Cl)c(Cl)cc4Cl)cc3)ncnc12` [Compound 42] returned an ALH percent mortality in data set [1] (400 ppm) of 60%. For the same compound, in [2], the ERYSGT disease control result is listed as “- (0-19% control at 400 ppm)”. In addition, the LETPNO disease control result in data set [3] is “- (0-19% control at 400 ppm)”. Moreover, the PYRIOR disease control entry in data set [4] is reported as “- (0-19% control at 400 ppm)”. Moreover, in [5], the pest or weed control at 400 µg/mL fell in the range of 20 to 89%. For the same compound, the “BAW activity (rated on live and dead larvae and size of live larvae)” value in data set [6] (400 ppm) was determined as 0. Further, in [7] (400 ppm), the “TBW activity (rated on live and dead larvae and size of live larvae)” value is listed as 0. The “TSSM activity (percent based on mites present in plants sprayed with solvent alone)” value in data set [8] is 0%. Besides, the “CA activity (percent based on aphids present in plants sprayed with solvent alone)” value in [9] was found to be 0%. Moreover, the PUCCRT disease control entry in data set [10] is “+ (20-89% control at 400 ppm)”.
`Fc1cccc2c(OCCc3ccc(Oc4nc(Cl)c(Cl)cc4Cl)cc3)ncnc12` [Compound 44] displayed an ALH percent mortality in data set [1] (400 ppm) of 0%. For the same compound, the ERYSGT disease control entry in data set [2] is recorded as “+++ (90-100% control at 100 ppm)”. Further, the LETPNO disease control entry in [3] was “+ (20-89% control at 400 ppm)”. In addition, the PYRIOR disease control entry in data set [4] is listed as “+ (20-89% control at 400 ppm)”. In addition, the PLASVI disease control entry in [5] (host grape, foliar spray, 400 ppm (+++: 100 ppm)) is on record as “+ (20-89% control at 400 ppm)”. In addition, the mortality at 24 ppm in data set [11] turned out to be 100%. In addition, the “BAW activity (rated on live and dead larvae and size of live larvae)” value in data set [6] (400 ppm) came to 100. Moreover, in data set [12], the mortality at 400 ppm is 20%. In addition, the “TBW activity (rated on live and dead larvae and size of live larvae)” value in data set [7] (400 ppm) is given as 100. For the same compound, the “TSSM activity (percent based on mites present in plants sprayed with solvent alone)” value in [8] came to 50%. Besides, in data set [9], the “CA activity (percent based on aphids present in plants sprayed with solvent alone)” value is 100%. In data set [10], the PUCCRT disease control result is reported as “+++ (90-100% control at 100 ppm)”.
Regarding `c1ccc2c(OCCc3ccc(Oc4cnccn4)cc3)ncnc2c1` [Compound 51], the mortality at 50 ppm in [1] (Macrosteles fascifrons, 24 h, 50 ppm, read-out: ALH percent mortality) was found to be 100%; in data set [13] (read-out: TSSM activity (percent based on mites present in plants sprayed with solvent alone), 50 ppm, squash plants, three days after treatment), 0%; in data set [12] (50 ppm), 0%; in [14], 0%; in data set [15] (read-out: CA activity (percent based on aphids present in plants sprayed with solvent alone), 50 ppm, squash plants, three days after treatment) it was 0%. For the same compound, the mortality at 400 ppm in [1] (Macrosteles fascifrons, 24 h, 400 ppm, read-out: ALH percent mortality) stood at 100%; in data set [13] (read-out: TSSM activity (percent based on mites present in plants sprayed with solvent alone), 400 ppm, squash plants, three days after treatment), 0%; in data set [12], 0%; in [15] (read-out: CA activity (percent based on aphids present in plants sprayed with solvent alone), 400 ppm, squash plants, three days after treatment) it was 0%. Also, the pest or weed control at 400 µg/mL in data set [2] (Blumeria graminis, in Triticum aestivum, foliar, read-out: ERYSGT disease control, host wheat, 400 ppm (+++: 100 ppm)) was 90 to 100%; in data set [3] (Parastagonospora nodorum, in Triticum aestivum, foliar, read-out: LETPNO disease control, host wheat, 400 ppm (+++: 100 ppm)), 90 to 100%; in data set [4] (Pyricularia oryzae, foliar, read-out: PYRIOR disease control, host rice), 90 to 100%; in [5], 90 to 100%; in data set [10] (Puccinia recondita, in Triticum aestivum, foliar, read-out: PUCCRT disease control, host wheat, 400 ppm (+++: 100 ppm)), 0 to 19%. Also, in data set [11], the mortality at 24 ppm stood at 100%. Further, the pest or weed control at 50 ppm turned out to be 100% in data set [6] (Spodoptera, 144 h, 50 ppm, read-out: BAW activity (rated on live and dead larvae and size of live larvae)); 100% in data set [7] (Heliothis virescens, 144 h, 50 ppm, read-out: TBW activity (rated on live and dead larvae and size of live larvae)). Further, the pest or weed control at 400 ppm in data set [6] (Spodoptera, 144 h, 400 ppm, read-out: BAW activity (rated on live and dead larvae and size of live larvae)) came to 100%; in [7] (Heliothis virescens, 144 h, 400 ppm, read-out: TBW activity (rated on live and dead larvae and size of live larvae)) it was 100%.
